Tests used:
[1] = DRUGMATRIX: Leukotriene, BLT (LTB4) radioligand binding (ligand: [3H]LTB4); format: cell membranes, Membrane; settings: u-937; Not Active = under 50% inhibition at 10 µM
[2] = DRUGMATRIX: beta-Lactamase enzyme inhibition (substrate: Nitrocefin); set-up: species or system Bacillus cereus; settings: Not Active = under 50% inhibition at 10 µM
Cytochrome P450 2C9 = Cytochrome P450 2C9 (Homo sapiens, UniProt P11712); settings: bti-tn-5b1-4; further: in other assays of this panel Not Active means under 50% inhibition at 10 µM
Chain of Cytochrome P450 2C9 (P11712 whole entry): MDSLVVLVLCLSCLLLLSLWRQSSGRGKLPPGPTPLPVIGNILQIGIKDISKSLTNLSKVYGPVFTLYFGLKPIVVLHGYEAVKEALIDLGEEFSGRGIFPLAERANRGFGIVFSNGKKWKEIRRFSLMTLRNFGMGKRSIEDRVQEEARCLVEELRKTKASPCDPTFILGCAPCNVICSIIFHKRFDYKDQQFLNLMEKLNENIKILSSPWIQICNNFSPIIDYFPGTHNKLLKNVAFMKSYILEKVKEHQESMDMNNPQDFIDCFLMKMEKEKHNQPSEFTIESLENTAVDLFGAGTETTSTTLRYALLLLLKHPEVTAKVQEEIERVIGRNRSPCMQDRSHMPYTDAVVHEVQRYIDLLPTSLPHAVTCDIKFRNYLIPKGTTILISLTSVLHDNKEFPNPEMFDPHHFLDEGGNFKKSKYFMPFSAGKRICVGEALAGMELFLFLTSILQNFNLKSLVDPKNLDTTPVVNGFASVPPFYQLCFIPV

Insulin receptor = Insulin receptor (Rattus norvegicus, UniProt P15127); format: cell membranes, Wistar, Liver, Membrane; further: in other assays of this panel Not Active means under 50% inhibition at 10 µM
Chain of Insulin receptor (P15127 27-759 limits assumed): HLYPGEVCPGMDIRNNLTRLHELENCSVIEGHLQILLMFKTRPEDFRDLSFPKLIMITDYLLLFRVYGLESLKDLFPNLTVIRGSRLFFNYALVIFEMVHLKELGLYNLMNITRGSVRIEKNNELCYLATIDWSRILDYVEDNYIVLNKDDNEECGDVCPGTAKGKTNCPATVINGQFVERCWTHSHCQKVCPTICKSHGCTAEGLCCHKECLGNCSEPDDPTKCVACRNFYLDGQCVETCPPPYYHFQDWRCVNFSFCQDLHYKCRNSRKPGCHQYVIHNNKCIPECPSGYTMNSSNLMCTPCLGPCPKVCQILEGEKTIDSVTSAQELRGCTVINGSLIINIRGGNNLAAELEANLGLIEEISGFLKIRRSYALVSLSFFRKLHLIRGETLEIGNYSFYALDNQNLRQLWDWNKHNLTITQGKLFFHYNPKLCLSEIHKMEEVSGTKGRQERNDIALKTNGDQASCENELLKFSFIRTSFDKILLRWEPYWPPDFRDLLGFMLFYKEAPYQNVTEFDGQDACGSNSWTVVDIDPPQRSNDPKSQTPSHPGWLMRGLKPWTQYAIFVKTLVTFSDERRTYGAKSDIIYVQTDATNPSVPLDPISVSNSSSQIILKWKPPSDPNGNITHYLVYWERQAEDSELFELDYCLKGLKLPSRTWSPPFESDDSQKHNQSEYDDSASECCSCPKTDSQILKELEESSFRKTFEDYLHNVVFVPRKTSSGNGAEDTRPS
Chain of Insulin receptor (P15127 764-1383 limits assumed): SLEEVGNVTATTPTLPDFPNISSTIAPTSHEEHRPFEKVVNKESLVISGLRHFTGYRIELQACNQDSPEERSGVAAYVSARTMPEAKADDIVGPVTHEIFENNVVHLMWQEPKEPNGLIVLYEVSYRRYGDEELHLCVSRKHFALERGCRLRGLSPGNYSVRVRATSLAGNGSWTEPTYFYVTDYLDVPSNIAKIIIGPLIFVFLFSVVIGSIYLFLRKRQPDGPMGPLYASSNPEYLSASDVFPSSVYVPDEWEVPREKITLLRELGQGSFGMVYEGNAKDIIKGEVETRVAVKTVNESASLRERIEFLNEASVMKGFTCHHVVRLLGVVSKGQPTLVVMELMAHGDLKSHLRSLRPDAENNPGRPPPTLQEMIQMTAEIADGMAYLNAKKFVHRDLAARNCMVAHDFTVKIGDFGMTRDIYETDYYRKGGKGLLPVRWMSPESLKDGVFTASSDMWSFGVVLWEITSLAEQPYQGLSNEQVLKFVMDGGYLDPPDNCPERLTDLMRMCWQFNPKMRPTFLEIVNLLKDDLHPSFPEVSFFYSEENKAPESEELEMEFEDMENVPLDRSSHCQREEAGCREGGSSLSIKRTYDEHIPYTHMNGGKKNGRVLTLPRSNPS

[3] = DRUGMATRIX: Interleukin IL-1 radioligand binding (ligand: [125I] interleukin 1beta); format: cell membranes, Membrane; settings: nih3t3; Not Active = under 50% inhibition at 10 µM
Estrogen receptor beta = Estrogen receptor beta (Homo sapiens, UniProt Q92731); settings: sf9; further: in other assays of this panel Not Active means under 50% inhibition at 10 µM
Chain of Estrogen receptor beta (Q92731 whole entry): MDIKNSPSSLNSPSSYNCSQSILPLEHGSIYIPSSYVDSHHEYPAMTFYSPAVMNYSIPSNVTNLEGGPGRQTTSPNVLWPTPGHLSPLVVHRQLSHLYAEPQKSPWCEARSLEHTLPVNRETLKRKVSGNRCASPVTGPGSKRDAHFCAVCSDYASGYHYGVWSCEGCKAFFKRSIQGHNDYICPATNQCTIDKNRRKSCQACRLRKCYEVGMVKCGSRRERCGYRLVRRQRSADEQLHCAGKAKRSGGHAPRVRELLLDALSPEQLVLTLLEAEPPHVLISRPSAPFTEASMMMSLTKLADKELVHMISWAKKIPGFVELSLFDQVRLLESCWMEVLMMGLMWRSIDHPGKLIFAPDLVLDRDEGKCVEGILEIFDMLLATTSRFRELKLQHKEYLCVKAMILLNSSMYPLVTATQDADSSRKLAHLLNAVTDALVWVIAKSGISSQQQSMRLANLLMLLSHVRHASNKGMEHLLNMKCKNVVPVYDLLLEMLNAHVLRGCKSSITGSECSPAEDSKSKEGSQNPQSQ

[4] = DRUGMATRIX: Glutamate, AMPA radioligand binding (ligand: [3H] AMPA); format: cell membranes, Rattus norvegicus, Wistar, Cerebral cortex, Membrane; settings: Not Active = under 50% inhibition at 10 µM
[5] = target: T1, Muscarinic acetylcholine receptor M2 (Homo sapiens, UniProt P08172); format: cell membranes, CHO-K1, Membrane; settings: cho-k1; further: in other assays of this panel Not Active means under 50% inhibition at 10 µM
T1 sequence (P08172 whole entry): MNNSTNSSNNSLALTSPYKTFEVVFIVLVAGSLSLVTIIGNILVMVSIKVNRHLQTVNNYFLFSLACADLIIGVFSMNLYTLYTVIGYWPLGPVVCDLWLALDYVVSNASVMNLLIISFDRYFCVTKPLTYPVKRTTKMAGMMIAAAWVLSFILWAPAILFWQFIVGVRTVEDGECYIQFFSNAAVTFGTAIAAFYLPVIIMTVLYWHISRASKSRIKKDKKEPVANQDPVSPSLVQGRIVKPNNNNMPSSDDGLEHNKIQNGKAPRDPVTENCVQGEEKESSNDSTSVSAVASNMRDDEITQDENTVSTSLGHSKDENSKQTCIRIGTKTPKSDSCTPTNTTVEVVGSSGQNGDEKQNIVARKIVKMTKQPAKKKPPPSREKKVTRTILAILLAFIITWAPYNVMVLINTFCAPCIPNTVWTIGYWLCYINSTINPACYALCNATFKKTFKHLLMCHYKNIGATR

Endothelin-1 receptor = target: T2, Endothelin-1 receptor (Homo sapiens, UniProt P25101); format: cell membranes, Membrane; settings: cho-k1; further: in other assays of this panel Not Active means under 50% inhibition at 10 µM
T2 sequence (P25101 whole entry): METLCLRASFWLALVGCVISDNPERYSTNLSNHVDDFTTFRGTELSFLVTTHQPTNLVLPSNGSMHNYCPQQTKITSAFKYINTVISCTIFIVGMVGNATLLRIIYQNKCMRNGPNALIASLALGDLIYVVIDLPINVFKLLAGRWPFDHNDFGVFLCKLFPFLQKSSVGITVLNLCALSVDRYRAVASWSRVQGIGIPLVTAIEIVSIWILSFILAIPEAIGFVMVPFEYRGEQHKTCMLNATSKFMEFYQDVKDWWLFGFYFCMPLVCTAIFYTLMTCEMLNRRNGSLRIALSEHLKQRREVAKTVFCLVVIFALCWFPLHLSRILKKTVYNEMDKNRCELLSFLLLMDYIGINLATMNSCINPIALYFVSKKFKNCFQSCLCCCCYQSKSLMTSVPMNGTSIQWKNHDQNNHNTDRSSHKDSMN

[6] = target: Mitogen-activated protein kinase 1 (Homo sapiens, UniProt P28482); experiment: DRUGMATRIX: Protein Serine/Threonine Kinase, ERK2 enzyme inhibition (substrate: Myelin Basic Protein); set-up: species or system Escherichia coli; settings: Not Active = under 50% inhibition at 10 µM
Chain of Mitogen-activated protein kinase 1 (P28482 whole entry): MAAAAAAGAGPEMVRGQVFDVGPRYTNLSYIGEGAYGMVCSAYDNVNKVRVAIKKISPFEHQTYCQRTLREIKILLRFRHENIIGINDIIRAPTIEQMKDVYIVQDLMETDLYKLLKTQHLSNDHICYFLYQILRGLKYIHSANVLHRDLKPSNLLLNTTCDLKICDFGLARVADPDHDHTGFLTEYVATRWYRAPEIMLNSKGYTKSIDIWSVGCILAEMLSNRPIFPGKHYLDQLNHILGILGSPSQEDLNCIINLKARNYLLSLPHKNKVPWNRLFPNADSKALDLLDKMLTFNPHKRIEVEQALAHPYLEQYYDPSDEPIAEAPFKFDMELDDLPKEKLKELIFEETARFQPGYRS

[7] = DRUGMATRIX: Glutamate, NMDA, Agonism radioligand binding (ligand: [3H] CGP-39653); format: cell membranes, Rattus norvegicus, Wistar, Cerebral cortex, Membrane; settings: Not Active = under 50% inhibition at 10 µM
Caspase-1 = target: T3, Caspase-1 (Homo sapiens, UniProt P29466); set-up: species or system Escherichia coli
T3 sequence (P29466 whole entry): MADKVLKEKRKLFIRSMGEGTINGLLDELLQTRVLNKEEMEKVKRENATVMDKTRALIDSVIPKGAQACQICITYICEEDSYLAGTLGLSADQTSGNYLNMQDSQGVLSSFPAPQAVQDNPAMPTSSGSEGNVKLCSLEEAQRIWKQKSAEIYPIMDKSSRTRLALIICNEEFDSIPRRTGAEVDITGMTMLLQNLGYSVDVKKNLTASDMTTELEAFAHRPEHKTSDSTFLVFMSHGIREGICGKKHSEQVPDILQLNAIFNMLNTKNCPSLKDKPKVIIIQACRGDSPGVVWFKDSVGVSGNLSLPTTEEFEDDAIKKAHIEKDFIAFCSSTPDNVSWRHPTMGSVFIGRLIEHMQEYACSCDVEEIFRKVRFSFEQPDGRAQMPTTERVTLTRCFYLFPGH

| Structure (SMILES) | IC50 [1] | Ki [1] | IC50 [2] | Ki [2] | IC50 (Cytochrome P450 2C9) | Ki (Cytochrome P450 2C9) | IC50 (Insulin receptor) | IC50 [3] | Ki [3] | IC50 (Estrogen receptor beta) | IC50 [4] | Ki [4] | IC50 [5] | IC50 (Endothelin-1 receptor) | IC50 [6] | IC50 [7] | Ki [7] | IC50 (Caspase-1) | IC50 ([2]; read-out: IC50) [µM] |
| --- | --- | --- | --- | --- | --- | --- | --- | --- | --- | --- | --- | --- | --- | --- | --- | --- | --- | --- | --- |
| CC1=C(CC(=O)O)c2cc(F)ccc2/C1=C\c1ccc([S+](C)[O-])cc1 (stereo not given) | Not Active | Not Active | Not Active | Not Active | Not Active | Not Active | Not Active | Not Active | Not Active | Not Active | Not Active | Not Active | Not Active | Not Active | Not Active | Not Active | Not Active | Not Active |  |
| Clc1ccc2c(c1)C(N1CCNCC1)=Nc1ccccc1O2 [AMOXAPINE] |  |  |  |  | Not Active | Not Active | Not Active |  |  | Not Active |  |  |  | Not Active | Not Active |  |  | Not Active |  |
| COc1cc2c(c(OC)c1OC)-c1ccc(OC)c(=O)cc1[C@@H](NC(C)=O)CC2 [COLCHICINE] |  |  |  |  | Not Active | Not Active | Not Active |  |  | Not Active |  |  | Not Active | Not Active | Not Active |  |  | Not Active |  |
| CN1CCC(=C2c3ccccc3C=Cc3ccccc32)CC1 [CYPROHEPTADINE] |  |  |  |  | Not Active | Not Active | Not Active |  |  | Not Active |  |  |  | Not Active | Not Active |  |  | Not Active |  |
| CC/C(=C(/CC)c1ccc(O)cc1)c1ccc(O)cc1 [DIETHYLSTILBESTROL] |  |  |  |  | Not Active | Not Active | Not Active |  |  | Not Active |  |  | Not Active | Not Active | Not Active |  |  | Not Active |  |
| CC(=O)N1CCN(c2ccc(OCC3COC(Cn4ccnc4)(c4ccc(Cl)cc4Cl)O3)cc2)CC1 (stereo not given) [KETOCONAZOLE] | Not Active | Not Active | Not Active | Not Active | Not Active | Not Active | Not Active | Not Active | Not Active | Not Active | Not Active | Not Active |  | Not Active | Not Active | Not Active | Not Active | Not Active |  |
| C=CCN1CC[C@]23c4c5ccc(O)c4O[C@H]2C(=O)CC[C@@]3(O)[C@H]1C5 [NALOXONE] |  |  |  |  |  |  | Not Active |  |  | Not Active |  |  | Not Active | Not Active | Not Active |  |  | Not Active |  |
| COCCOC(=O)C1=C(C)NC(C)=C(C(=O)OC(C)C)C1c1cccc([N+](=O)[O-])c1 (stereo not given) [NIMODIPINE] | Not Active | Not Active | Not Active | Not Active |  |  | Not Active | Not Active | Not Active |  | Not Active | Not Active | Not Active | Not Active | Not Active | Not Active | Not Active | Not Active |  |
| CC(C)NCC(O)COc1cccc2ccccc12 (stereo not given) [PROPRANOLOL] |  |  |  |  | Not Active | Not Active | Not Active |  |  | Not Active |  |  | Not Active | Not Active | Not Active |  |  | Not Active |  |
| O=C(c1ccc(OCCN2CCCCC2)cc1)c1c(-c2ccc(O)cc2)sc2cc(O)ccc12 [RALOXIFENE] | Not Active | Not Active | Not Active | Not Active |  |  | Not Active | Not Active | Not Active | Not Active | Not Active | Not Active | Not Active | Not Active | Not Active | Not Active | Not Active | Not Active |  |
| CC(C)c1nc(CN(C)C(=O)N[C@H](C(=O)N[C@@H](Cc2ccccc2)C[C@H](O)[C@H](Cc2ccccc2)NC(=O)OCc2cncs2)C(C)C)cs1 [RITONAVIR] | Not Active | Not Active | Not Active | Not Active |  |  | Not Active | Not Active | Not Active | Not Active | Not Active | Not Active | Not Active | Not Active | Not Active | Not Active | Not Active | Not Active |  |
| COc1cc(NS(=O)(=O)c2ccc(N)cc2)nc(OC)n1 [SULFADIMETHOXINE] | Not Active | Not Active | Not Active | Not Active |  |  | Not Active | Not Active | Not Active | Not Active | Not Active | Not Active | Not Active | Not Active | Not Active | Not Active | Not Active | Not Active |  |
| Cc1cc(C)nc(NS(=O)(=O)c2ccc(N)cc2)n1 [SULFAMETHAZINE] | Not Active | Not Active | Not Active | Not Active | Not Active | Not Active | Not Active | Not Active | Not Active |  | Not Active | Not Active | Not Active | Not Active | Not Active | Not Active | Not Active | Not Active |  |
| C[C@]1(Cn2ccnn2)[C@H](C(=O)O)N2C(=O)C[C@H]2S1(=O)=O [TAZOBACTAM] | Not Active | Not Active |  |  | Not Active | Not Active | Not Active | Not Active | Not Active |  | Not Active | Not Active | Not Active | Not Active | Not Active | Not Active | Not Active | Not Active | 0.299 |
| CC(C)(C)c1ccc(C(O)CCCN2CCC(C(O)(c3ccccc3)c3ccccc3)CC2)cc1 (stereo not given) [TERFENADINE] | Not Active | Not Active | Not Active | Not Active |  |  | Not Active | Not Active | Not Active | Not Active | Not Active | Not Active | Not Active | Not Active | Not Active | Not Active | Not Active | Not Active |  |
| CC(=O)CC(c1ccccc1)c1c(O)c2ccccc2oc1=O (stereo not given) [WARFARIN] | Not Active | Not Active | Not Active | Not Active | Not Active | Not Active | Not Active | Not Active | Not Active |  | Not Active | Not Active | Not Active | Not Active | Not Active | Not Active | Not Active | Not Active |  |
| [Cl-].[Cl-].[Zn+2] [ZINC CHLORIDE] | Not Active | Not Active | Not Active | Not Active | Not Active | Not Active | Not Active | Not Active | Not Active |  | Not Active | Not Active | Not Active | Not Active | Not Active | Not Active | Not Active | Not Active |  |
